Laboratory results reported in patent US20050042209A1, “MUC1 extracellular domain and cancer treatment compositions and methods derived therefrom” (priority 2000, published 2005).
Where two headings read alike, the source gives them in different places.

How the values were obtained:
β-actin = β-actin expression after CDDO; settings: 5 μM
Protocol: (§2) Immunoblot analysis: Cells were lysed in ice-cold lysis buffer (20 mM Tris-HCl, pH 8.0, 150 mM NaCl, 1% Triton-X-100, 1 mM phenylsulfonyl fluoride, 1 mM DTT, 10 μgm/ml aprotinin) for 30 min. Lysates were cleared by centrifugation for 20 min. at 4° C. as described (Yin et al, 2001). Proteins were separated by SDS-PAGE, transferred to nitrocellulose and probed with anti-DF3/MUC1 (Kufe, U.S. Pat. No. 5,506,34) or anti-β-actin (Sigma). The antigen-antibody complexes were visualized by enhanced chemiluminescence (ECL; Amersham Life Sciences).

MUC1 [1] = settings: MUC1-positive cells
Protocol: Cell Culture: Human MCF-7 breast carcinoma and HeLa cervical carcinoma cella (obtained form the ATCC, Manassas, Va.) were grown in DMEM (high glucose; Mediatech, Cellgrow) supplemented with 10% heat-inactivated fetal calf serum (FCS) and 2 mM L-glutamate.
as §2
CDDO downregulates MUC1 expression: MUC1-positive cells were treated with CDDO at concentrations of 1, 3 and 5 μM.

MUC1 transcripts = settings: MCF-7 cells
Protocol: Reverse transcription-polymerase chain reaction (RT-PCR): Total cellular RNA was extracted in Triazol, dissolved in RNAase-free water and incubated for 10 min. at 55° C. MUC1-specific primers (5′-[sequence]-3′ and 3′-[sequence]-5′) were designed to span a region within the genomic DNA that contains two introns and result in amplification of a 489-bp fragment from RNA and a 783-bp fragment from genomic DNA. RNA-specific primers for human β-actin were used as a control. The RNA was reverse transcribed and amplified using SuperScript One-Step RT-PCR with Platinum Taq (GIBCO-BRL Gaithersburg, Md.). Amplified fragments were analyzed by electrophoresis in 2% agarose gels.
To determine whether MUC1 expression is decreased at the mRNA level , RT-PCR was performed on MCF-7 cells treated with CDDO and the derivatives. […] Whereas CDDO induces apoptosis of diverse cell types, we assessed viability of MCF-7 cells under the same experimental conditions.

intracellular ROS = settings: MCF-7 cells, compared to control
Protocol: Measurement of ROS levels: Cells were incubated with 10 mM DCF-DA Sigma) for 15 min. at 37° C. to assess ROS-mediated oxidation of the fluorescent compound DCF (LeBel et al., 1992). Fluorescence of oxidized DCF was measured at an excitation wavelength of 480 nm and an emission wavelength of 525 nm using a flow cytometer (Beckton Dickerson, Lincoln Park, N.J.).
As a control, cells were incubated with NAC, a scavenger of ROS.

[2] = tested on: ZR-75-1 breast carcinoma cells; assay: Apoptosis assay (sub-G1 DNA) in ZR-75-1 cells; format: cell-based, human
Protocol: Apoptosis assay: Apoptotic cells were quantified by analysis of sub-G1 DNA. Cells were harvested, washed with PBS, fixed with 80% ethanol, and incubated in PBS containing 20 ng/ml RNase (Roche) for 60 min at 37° C. Cells were stained with 40 μg/ml propidium iodide (Sigma) for 30 min at room temperature in the dark. DNA content was analyzed by flow cytometry (EPICS XL-MCL, Coulter Corp.).
(§1) As a control, stable transfection of ZR-75-1 cells with the empty reterovirus had no effect on MUC1 expression. […] By contrast, CDDP treatment of ZR-75-1/MUC1siRNA cells was associated with a clear loss of ΔΨm. In concert with these findings, cytochrome C release, as measured by immunoblot, was attenuated in CDDP-treated ZR-75-1/vector cells, as compared to ZR-75-1/MUC1siRNA cells. […] Treatment of ZR-75-1/vector cells with CDDP was associated with the induction of approximately 25% apoptosis.

ZR-75-1 tumors = assay: ZR-75-1 tumor growth in nude mice; format: in vivo; settings: 7 mg/Kg CDDP intraperitoneal, FIG. 12
Protocol: FIG. 12: Summary of data showing that MUC1 confers resistance to CDDP in vivo. ZR-75-1/vector cells (∘, ●) or ZR-75-1/MUC1siRNA (¤, ▪) cells (1×10^7) were injected into nude mice that had been pretreated with β-estradiol. The mice were treated as indicated (arrows) with intraperitoneal injections of PBS (¤, ∘) or 7 mg/Kg CDDP (●, ▪). The results are expressed as the tumor volume (mean±S.D>of 4-8 mice per group.
To determine if knocking-down MUC1 affects chemosensitivity in vivo, mice were injected with ZR-75-1 cells stably expressing the empty viral vector or MUCsiRNA.

MUC1 [3] = assay: MUC1 induction by oxidative and genotoxic stress (immunoblot); settings: available evidence; cells not given
Protocol: To determine whether MUC1 is induced in response to oxidative stress, MCF-7 cells were treated with hydrogen peroxide. Cell lysates were analyzed by immunoblotting with anti-DF3/MUC1 antibody. Lysates were prepared by suspending MCF-7 cells in lysis buffer (50 mM Tris, pH 7.6, 150 mM NaCl, 1 mM PMSF, 3 mM NaF, 1 mM sodium vandate, 1 mM DTT with protease inhibitors and either 1% NP-40 or 1% Brij-96) for 30 min. on ice. Lysates were cleared by centifugation and equal amounts of proteins were resolved by SDS-PAGE. Proteins were then transferred to nitrocellulose filters, blocked by incubation in 5% non-fat dry milk in PBS with 0.05% Tween-20 and probed with anti-MUC1 antibody (Pandey et al., 1995). Anti-actin was used as a control.
Similar studies were performed with genotoxic agents.

[4] = tested on: ZR-75-1 breast carcinoma cells; assay: Mitochondrial transmembrane potential in ZR-75-1 cells; format: cell-based, human
Protocol: Analysis of mitochondrial transmembrane potential: Cells were incubated with 0.5 nM 3,3-dihexyloxocarbocyanine iodide (DiOC6[3]; Molecular Probes) for 30 min and analyzed by flow cytometry as described (Shapiro, 2000).
as §1

cytochrome c release = assay: Cytochrome c release (immunoblot) in ZR-75-1 cells; format: cell-based, human; settings: ZR-75-1/vector cells compared to ZR-75-1/MUC1siRNA cells
Protocol: Immunoblot analysis: Lysates were prepared from cells as described (Li et al., 2001]. Equal amounts of protein were separated by SDS-PAGE and transferred with anti-cytochrome c (BD PharMingen, San Diego, Calif.). The immunocomplexes were detected with horseradish peroxidase-conjugated secondary antibodies and enhanced chemiluminescence (ECL, Amersham Biosciences, Piscataway, N.J.). Intensity of the signals was determined by densiometric scanning.
as §1

HCT116 cells [5] = assay: Cell death of HCT116 transfectants; format: cell-based, human; settings: 72 h
Protocol: Results. Treatment of cells with DNA-damaging agents is associated with release of mitochondrial cytochrome c and activation of the intrinsic apoptotic pathway. To determine if mitochondrial localization of the MUC1 C-ter affects cytochrome c release, the HCT116 transfectants were treated with cisplatin (CDDP). […] Release of cytochrome c in the response to genotoxic stress is associated with activation of caspase-3 and cleavage of PKCδ (Emoto et al., 1995). To assess the effects of MUC1 on caspase-3 activation, CDDP-treated cells were analyzed for cleavage of pro-caspase-3. […] Smac/DIABLO is a mitochondrial protein that induces caspase-dependent cell death by interacting with inhibitor of apoptosis proteins (IAPs) and blocking their caspase inhibitory activity (Du et al., 2000; Verhagen et al., 2000). To determine if MUC1 attenuates release of Smac/DIABLO, HCT116/vector, HCT116/MUC1 and HCT116/MUC(Y46F) cells were treated with CDDP for 24, 48 and 72 h, and cytosolic lysates were subjected to immunoblot analysis. […] CDDP treatment of HCT116/vector and HCT116/MUC1(Y46F) cells for 72 h was associated with>90% cell death and decreases in the β-actin signals used as a control for loading. By contrast, treatment of HCT116/MUC1 cells with CDDP for 72 h was associated with cessation of cell growth and<30% cell death. […]

[6] = tested on: intrinsic apoptotic pathway; assay: Release of mitochondrial factors and caspase-3 activation in HCT116 transfectants; format: cell-based, human
Protocol: Methods. Experimental procedures and methods were as described in Example 15.
Results. Treatment of cells with DNA-damaging agents is associated with release of mitochondrial cytochrome c and activation of the intrinsic apoptotic pathway. To determine if mitochondrial localization of the MUC1 C-ter affects cytochrome c release, the HCT116 transfectants were treated with cisplatin (CDDP). […] Release of cytochrome c in the response to genotoxic stress is associated with activation of caspase-3 and cleavage of PKCδ (Emoto et al., 1995). To assess the effects of MUC1 on caspase-3 activation, CDDP-treated cells were analyzed for cleavage of pro-caspase-3. […] Smac/DIABLO is a mitochondrial protein that induces caspase-dependent cell death by interacting with inhibitor of apoptosis proteins (IAPs) and blocking their caspase inhibitory activity (Du et al., 2000; Verhagen et al., 2000). To determine if MUC1 attenuates release of Smac/DIABLO, HCT116/vector, HCT116/MUC1 and HCT116/MUC(Y46F) cells were treated with CDDP for 24, 48 and 72 h, and cytosolic lysates were subjected to immunoblot analysis. […] CDDP treatment of HCT116/vector and HCT116/MUC1(Y46F) cells for 72 h was associated with>90% cell death and decreases in the β-actin signals used as a control for loading. By contrast, treatment of HCT116/MUC1 cells with CDDP for 72 h was associated with cessation of cell growth and<30% cell death. These findings indicate that mitochondrial localization of MUC1 C-ter attenuates DNA damage-induced activation of the intrinsic apoptotic pathway.

HCT116 cells [7] = assay: Apoptosis (sub-G1 DNA, TUNEL) in HCT116 transfectants; format: cell-based, human; settings: FIG. 15
Protocol: Methods. Apoptotic cells were quantified by analysis of sub-G1 DNA and TUNEL staining. To assess sub-G1 DNA content, cells were harvested, washed with PBS, fixed with 80% ethanol, and incubated in PBS containing 20 ng/ml RNase (Roche) for 60 min at 37° C. Cells were then stained with […] propidium iodide (Sigma) for 30 min at room temperature in the dark. DNA content was analyzed by flow cytometry (EPICS XL-MCL, Coulter Corp.). Apoptotic cells with DNA fragmentation were detected by staining with the In Situ cell death detection kit (TUNEL; Roche Applied Science) and visualized by confocal microscopy (ZEISS LSM510). After staining, cells were analyzed by flow cytometry. Other experimental procedures and methods were as described in Example 15.
Results. To determine if MUC1 affects the induction of apoptosis by CDDP, cells were analyzed for sub-G1 DNA content. […] Stimulation of cell surface death receptors with TNF-α or the TNF-related apoptosis inducing factor TRAIL is associated with activation of the extrinsic apoptotic pathway. To determine if MUC1 affects death receptor-induced apoptosis, HCT116 cells were treated with TNF-α.

MUC1 C-ter [8] = assay: Expression of MUC1 C-ter with CHX; format: cell-based, human
MUC1 C-ter [9] = assay: Mitochondrial localization of MUC1 C-ter (immunoblot of mitochondrial fractions); format: cell-based, human; settings: HCT116/MUC1 or HCT116/MUC1(Y46F) cells; EGF 10 ng/ml
Protocol: Cell culture. Human HCT116 colon carcinoma cells (ATCC, Manassas, Va.) were cultured in Dulbecco's modified Eagle's medium/F12 with 10% heat-inactivated fetal bovine serum, 100 units/ml penicillin, […] streptomycin and 2 mM L-glutamine.
Cell transfections. HCT116 cells were transfected with pIRES-puro2, pIRESpuro2-MUC1 or pIRES-puro2-MUC1(Y46F) as described (Li et al., 2001a). SW480 cells were transfected with pIRES-puro2 or pIRES-puro2-MUC1. Stable transfectants were selected in the presence of 0.4 mg/ml puromycin (Calbiochem-Novabiochem, San Diego, Calif.). Two independent transfections were performed for each vector.
Immunoblot analysis. Lysates were prepared from subconfluent cells as described (Li et al., 2001a). Equal amounts of protein were separated by SDS-PAGE and transferred to nitrocellulose membranes. […] The immunocomplexes were detected with horseradish peroxidase-conjugated secondary antibodies and enhanced chemiluminescence (ECL, Amersham Biosciences, Piscataway, N.J.). Intensity of the signals was determined by densitometric scanning. […]
To extend these findings, MUC1 C-ter was expressed with a GFP tag at the N-terminus and assessed mitochondrial localization. […]

For `CC1(C)CC[C@]2(C(=O)O)CC[C@]3(C)[C@H](C(=O)C=C4[C@@]5(C)C=C(C#N)C(=O)C(C)(C)[C@@H]5CC[C@]43C)[C@@H]2C1` [CDDO], the β-actin gene expression (β-actin) was “no apparent effect”, the “MUC1 protein (immunoblot)” value (MUC1 [1]; 5 μM) was “decreased levels” and the “MUC1 protein (immunoblot)” value (MUC1 [1]; 1 or 3 μM at 24 hr) was “little if any effect”. The “MUC1 transcripts (RT-PCR)” value (MUC1 transcripts) was “decrease” and the “ROS (oxidation of DCF)” value (intracellular ROS) was “detectable increases”.
With `[NH2][Pt]([NH2])([Cl])[Cl]` [CDDP, cisplatin] the apoptosis ([2]; ZR-75-1/MUC1siRNA cells) was “over 60%”, the apoptosis ([2]; ZR-75-1/vector cells) was “approximately 25%” and the “sensitivity of tumors to treatment” value (ZR-75-1 tumors; ZR-75-1/MUC1siRNA tumors) was “considerably more sensitive”. The tumor growth (ZR-75-1 tumors; ZR-75-1/vector tumors) was “partial slowing”, the “MUC1 induction by diverse cytotoxic agents” value (MUC1 [3]) was “induced” and the “mitochondrial transmembrane potential (ΔΨm)” value ([4]; ZR-75-1/MUC1siRNA cells) was “clear loss”. The “mitochondrial transmembrane potential (ΔΨm)” value ([4]; ZR-75-1/vector cells) was “little if any decrease”, the “cytochrome C release (immunoblot)” value (cytochrome c release) was “attenuated” and the cell death (HCT116 cells [5]; HCT116/MUC1 cells) was < 30%. For the same compound, the cell death (HCT116 cells [5]; HCT116/vector and HCT116/MUC1(Y46F) cells) was > 90%, the “release of Smac/DIABLO” value ([6]; 24, 48 and 72 h, HCT116/MUC1 compared to HCT116/vector and HCT116/MUC1(Y46F) cells) was “attenuated” and the “CDDP-induced cytochrome c release” value ([6]; HCT116/MUC1(Y46F) cells) was “ineffective in blocking”. The “release of cytochrome c” value ([6]; HCT116/MUC1 cells) was “significantly attenuated”, the “caspase-3-mediated cleavage of PKCδ” value ([6]; HCT116/MUC1 compared to HCT116/vector and HCT116/MUC1(Y46F) cells) was “attenuated” and the “CDDP-induced activation of caspase-3” value ([6]; HCT116/MUC1 compared to HCT116/vector cells) was “attenuates”. For the same compound, the “release of apoptosis-inducing factor (AIF)” value ([6]; HCT116/MUC1 compared to vector or MUC1(Y46F) cells) was “attenuated release”, the cytosolic cytochrome c ([6]; HCT116/vector cells) was “increased levels” and the “attenuation of CDDP-induced apoptosis” value (HCT116 cells [7]; HCT116/MUC1(Y46F) cells) was “not”. The CDDP-induced apoptosis (HCT116 cells [7]; HCT116/MUC1 cells) was “attenuated” and the “apoptosis (sub-G1 DNA)” value (HCT116 cells [7]; HCT116/vector cells, 100 μM CDDP for 24 h) was “approximately 40%”.
In the case of `C[C@@H]1C[C@@H]([C@H](O)CC2CC(=O)NC(=O)C2)C(=O)[C@@H](C)C1` [CHX, cycloheximide], the “expression of MUC1 C-ter” value (MUC1 C-ter [8]) is reported as “no apparent effect”.
In the case of “EGF: EGF (10 ng/ml; Calbiochem-Novabiochem)”, the “mitochondrial targeting of MUC1 C-ter” value (MUC1 C-ter [9]) is reported as “little effect”.
